Experiment [1] relates to DLD-1 colorectal cancer cells. As to the kind of experiment: Decrease in mitochondrial membrane potential, JC-1 MitoScreen flow cytometry. In kind it is cell-based, human. Particulars: 24 hours. The procedure: DLD-1 human colorectal cancer cells (ATCC CCL-221, Manassas, VA, USA) were grown in DMEM (Dulbecco's Modified Eagle's Medium) supplemented with 10% fetal bovine serum (FBS), 2 mM glutamine, 50 U/ml penicillin, 50 μg/ml streptomycin at 37° C., in atmosphere containing 5% of CO2. Then the cells were counted in a hemocytometer and transferred in the amount of 1×10^6 cells per well in 1 ml of culture medium from Costar flasks (Sigma, USA) to Nunc 6-well plates (Wiesbaden, Germany). The cells were transferred using calcium-free phosphate buffer with the addition of 0.05% trypsin and 0.02% EDTA. […] Within the subsequent 24 hours the cells covered at least 80% of the surface of each plate well. The cells prepared in this manner were incubated with the examined compounds for 24 hours and then used for further experiments.
(§1) For the assessment of changes in mitochondrial potential JC-1 MitoScreen kit (BD Biosciences. USA) was used. DLD-1 and HT-29 cancer cells covering about 80% of the plate surface were incubated with the examined compounds according to the invention at specific concentrations in an incubator at 37° C. in 5% CO2 atmosphere for 24 hours. Both examined compounds according to the invention were used at a concentration of 1.5 μM and 3.0 μM. After the incubation period, the medium was removed, the buffer included in the kit was added and the cells after washing two times were suspended in a mixture of JC-1 dye (5,5′,6,6′-tetrachloro-1,1′,3,3′-tetraethylbenzimidazol carbocyanine iodide) with a buffer at a concentration of 10 μg/ml. Subsequently, the samples were incubated in darkness for 15 minutes, washed with PBS solution and subjected to immediate analysis with the use of BD FacsCanto II flow cytometer; the results were assessed with the use of BD FacsDiva software. In live intact cells JC-1 dye accumulates in mitochondria and forms orange fluorescing aggregates. A decrease in mitochondrial potential ΔΨm is characterized by disintegration of these aggregates and green fluorescence.

Experiment [2] has as its system HT-29 human colorectal cancer cells. The experiment can be described thus: Cytotoxicity, MTT assay (Carmichael's method), cell survival. It is filed as cell-based. The settings on record: HT-29, 24-hour incubation. On the procedure: HT-29 human colorectal cancer cells (ATCC HTB-38, Manassas, VA, USA) were cultured in McCoy's 5A medium supplemented with 10% fetal bovine serum (FBS), 2 mM glutamine, 50 U/ml penicillin, 50 μg/ml of streptomycin at 37° C., in atmosphere containing 5% CO2. Subsequently, the cells were counted in a hemocytometer and were transferred in the amount of 1×10^6 cells per well in 1 ml of culture medium from Costar flasks (Sigma, USA) to Nunc 6-well plates (Wiesbaden, Germany). The cells were transferred using calcium-free phosphate buffer with the addition of 0.05% trypsin and 0.02% EDTA. […] Within the subsequent 24 hours the cells covered at least 80% of the surface of each plate well. […]
Cytotoxicity of the examined compounds according to the invention was measured by Carmichael's method (Carmichael J et al, Cancer Res., 1987, 47:943-946) and cell viability was determined using the tetrazolium salt (MT) in MTT assay. […] In a cell lysate prepared in such manner absorbance at 630 nm was measured. The result of absorbance obtained in the control cell cultures was assumed to be 100%. The viability of cells incubated in the presence of the examined compounds was expressed as percentage of the control values. The significance level p was determined by the nonparametric Mann-Whitney U test by means of SigmaStat software. […]
(Tetrazolium dyes change colour on reduction, which living cells bring about.)

Experiment [3] concerns HT-29 colorectal cancer cells. The experiment can be described thus: Decrease in mitochondrial membrane potential, JC-1 MitoScreen flow cytometry. In kind it is cell-based, human. The settings on record: 24 hours. On the procedure: HT-29 human colorectal cancer cells (ATCC HTB-38, Manassas, VA, USA) were cultured in McCoy's 5A medium supplemented with 10% fetal bovine serum (FBS), 2 mM glutamine, 50 U/ml penicillin, 50 μg/ml of streptomycin at 37° C., in atmosphere containing 5% CO2. Subsequently, the cells were counted in a hemocytometer and were transferred in the amount of 1×10^6 cells per well in 1 ml of culture medium from Costar flasks (Sigma, USA) to Nunc 6-well plates (Wiesbaden, Germany). The cells were transferred using calcium-free phosphate buffer with the addition of 0.05% trypsin and 0.02% EDTA. […] Within the subsequent 24 hours the cells covered at least 80% of the surface of each plate well. The cells prepared in this manner were incubated with the examined compounds for 24 hours and then used for further experiments.
as §1

Regarding `COC(=O)C1CCCN1S(=O)(=O)c1ccc(-n2nc(C)c3nc4nnnn4nc32)cc1` (stereo not shown) [Compound of Formula 2, Methyl 1-[4-(7-methyl-5H-pyrazol[4,3-e]tetrazolo[4,5-b][1,2,4]triazyn-5-yl)phenylsulfonyl]pyrrolidine-2-carboxylate], the “decrease of ΔΨm, % of the cell population” value in experiment [1] (DLD-1, 1.5 μM) is reported as 48.9%; in experiment [1] (DLD-1, 3.0 μM) it was 63.8%; in experiment [3] (HT-29, 1.5 μM), 25.7%; in experiment [3] (HT-29, 3.0 μM) it was 79.7%. The compound also came in with an IC50 in experiment [2] of 1730 ± 30 nM.
As for `COC(=O)C1CC(O)CN1S(=O)(=O)c1ccc(-n2nc(C)c3nc4nnnn4nc32)cc1` (stereo not shown) [Compound of Formula 3, Methyl 4-hydroxy-1-[4-(7-methyl-5H-pyrazolo[4,3-e]tetrazolo[4,5-b][1,2,4]triazyn-5-yl)phenylsulfonyl]pyrrolidine-2-carboxylate], the “decrease of ΔΨm, % of the cell population” value in experiment [1] (DLD-1, 1.5 μM) was 49.5%; in experiment [1] (DLD-1, 3.0 μM), 71.3%; in experiment [3] (HT-29, 1.5 μM), 26.9%; in experiment [3] (HT-29, 3.0 μM) it was 81.0%. For the same compound, the midpoint of inhibition in experiment [2], the IC50, lay at 3130 ± 20 nM.

The term IC50 denotes the concentration that gives 50% inhibition. Read a high IC50 as lower potency.
